Results published in the supplement of paper PMC10733146.

How the values were obtained:
Test in all cases: viability relative to DMSO control (fraction); higher = less drug effect (more viable cells)
Conditions in all cases: 48 h
[1] = compound: CC(C)C[C@H](NC(=O)[C@H](Cc1ccccc1)NC(=O)c1cnccn1)B(O)O [Bortezomib]
In short: (§1)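 Primary mononuclear tumour cells (Ficoll-isolated from blood or bone marrow, or processed lymph node; fresh or cryopreserved) were plated at 4 × 10^4 cells per well in 384-well plates with pre-plated compounds at five concentrations, one well each. Medium was RPMI-1640 with penicillin/streptomycin, L-glutamine and human serum, at 37 °C and 5% CO2 for 48 h. Viability was read as CellTiter-Glo luminescence relative to the median of 16 inner DMSO wells.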

[2] = compound: CC(C)(C)c1cc(NC(=O)Nc2ccc(-c3cn4c(n3)sc3cc(OCCN5CCOCC5)ccc34)cc2)no1 [Quizartinib]
In short: as §1

[3] = compound: Cc1cc(Nc2cc(N3CCN(C)CC3)nc(Sc3ccc(NC(=O)C4CC4)cc3)n2)n[nH]1 [Tozasertib]
In short: as §1

[4] = compound: Cc1cn(-c2cc(NC(=O)c3ccc(C)c(Nc4nccc(-c5cccnc5)n4)c3)cc(C(F)(F)F)c2)cn1 [Nilotinib]
In short: as §1

[5] = compound: CC(C)N(C[C@H]1O[C@@H](n2cnc3c(N)ncnc32)[C@H](O)[C@@H]1O)[C@H]1C[C@@H](CCc2nc3cc(C(C)(C)C)ccc3[nH]2)C1 [EPZ-5676]
In short: as §1

[6] = compound: CC[C@]1(O)C[C@H]2CN(CCc3c([nH]c4ccccc34)[C@@](C(=O)OC)(c3cc4c(cc3OC)N(C=O)[C@H]3[C@@](O)(C(=O)OC)[C@H](OC(C)=O)[C@]5(CC)C=CCN6CC[C@]43[C@@H]65)C2)C1 [Vincristine]
In short: as §1

[7] = compound: CC#CC(=O)N1CC[C@@H](n2c(=O)n(-c3ccc(Oc4ccccc4)cc3)c3c(N)ncnc32)C1 [ONO-4059]
In short: as §1

[8] = compound: Nc1nc2n[nH]nc2c(=O)[nH]1 [8-Azaguanin]
In short: as §1

[9] = compound: Cn1c(=O)n(-c2ccc(C(C)(C)C#N)cc2)c2c3cc(-c4cnc5ccccc5c4)ccc3ncc21 [BEZ235]
In short: as §1

[10] = compound: CC(C)(O)CNc1nc(Nc2ccnc(C(F)(F)F)c2)nc(-c2cccc(C(F)(F)F)n2)n1 [AG-221 (Enasidinib)]
In short: as §1

[11] = compound: CC(C)C[C@H](NC(=O)[C@H](CCc1ccccc1)NC(=O)CN1CCOCC1)C(=O)N[C@@H](Cc1ccccc1)C(=O)N[C@@H](CC(C)C)C(=O)[C@@]1(C)CO1 [Carfilzomib]
In short: as §1

[12] = compound: C1=N/C2=N/c3ccc(OCCN4CCCC4)c(c3)COC/C=C/COCc3cccc(c3)C(=C1)N2 [Pacritinib]
In short: as §1

[13] = compound: CC[C@@H]1C(=O)N(C)c2cnc(Nc3ccc(C(=O)N[C@H]4CC[C@H](N5CCN(CC6CC6)CC5)CC4)cc3OC)nc2N1C(C)C [BI6727]
In short: as §1

[14] = compound: COc1nc(N)nc2c1ncn2[C@@H]1O[C@H](CO)[C@@H](O)[C@@H]1O [Nelarabine]
In short: as §1

primary FL patient cells (S087) showed a viability ([1]; 0.008 µM) of 0.879, a viability ([1]; 0.04 µM) of 0.965 and a viability ([1]; 0.2 µM) of 0.931. The viability ([1]; 1 µM) was 0.998, the viability ([1]; 5 µM) was 0.901 and the viability ([2]; 0.016 µM) was 1.08. For the same test system, the viability ([2]; 0.08 µM) was 1.04, the viability ([2]; 0.4 µM) was 1.02 and the viability ([2]; 2 µM) was 1.03. For the same test system, the viability ([2]; 10 µM) was 0.986, the viability ([3]; 0.024 µM) was 0.941 and the viability ([3]; 0.12 µM) was 0.913. It also gave a viability ([3]; 0.6 µM) of 0.937, a viability ([3]; 3 µM) of 0.842 and a viability ([3]; 15 µM) of 0.797. It also gave a viability ([4]; 0.016 µM) of 0.964, a viability ([4]; 0.08 µM) of 1.07 and a viability ([4]; 0.4 µM) of 1.03. The viability ([4]; 2 µM) was 1.05, the viability ([4]; 10 µM) was 1.01 and the viability ([5]; 0.0032 µM) was 0.916. The viability ([5]; 0.016 µM) was 0.987, the viability ([5]; 0.08 µM) was 0.92 and the viability ([5]; 0.4 µM) was 0.919. It also gave a viability ([5]; 2 µM) of 0.975, a viability ([6]; 0.016 µM) of 0.817 and a viability ([6]; 0.08 µM) of 0.781. The viability ([6]; 0.4 µM) was 0.739, the viability ([6]; 2 µM) was 0.68 and the viability ([6]; 10 µM) was 0.559. For the same test system, the viability ([7]; 0.0016 µM) was 0.985, the viability ([7]; 0.008 µM) was 0.965 and the viability ([7]; 0.04 µM) was 1.02. The viability ([7]; 0.2 µM) was 0.92, the viability ([7]; 1 µM) was 0.983 and the viability ([8]; 0.032 µM) was 0.994. For the same test system, the viability ([8]; 0.16 µM) was 0.974, the viability ([8]; 0.8 µM) was 0.889 and the viability ([8]; 4 µM) was 0.796. For the same test system, the viability ([8]; 20 µM) was 0.713, the viability ([9]; 0.024 µM) was 0.905 and the viability ([9]; 0.12 µM) was 0.986. For the same test system, the viability ([9]; 0.6 µM) was 0.868, the viability ([9]; 3 µM) was 0.846 and the viability ([9]; 15 µM) was 0.619. For the same test system, the viability ([10]; 0.024 µM) was 0.925, the viability ([10]; 0.12 µM) was 0.86 and the viability ([10]; 0.6 µM) was 0.972. It also gave a viability ([10]; 3 µM) of 0.88, a viability ([10]; 15 µM) of 0.87 and a viability ([11]; 0.00016 µM) of 0.849. The viability ([11]; 0.0008 µM) was 0.515, the viability ([11]; 0.004 µM) was 0.272 and the viability ([11]; 0.02 µM) was 0.22. It also gave a viability ([11]; 0.1 µM) of 0.188, a viability ([12]; 0.024 µM) of 1.01 and a viability ([12]; 0.12 µM) of 1.01. For the same test system, the viability ([12]; 0.6 µM) was 0.853, the viability ([12]; 3 µM) was 0.698 and the viability ([12]; 15 µM) was 0.0383. The viability ([13]; 0.024 µM) was 0.983, the viability ([13]; 0.12 µM) was 0.974 and the viability ([13]; 0.6 µM) was 0.917. The viability ([13]; 3 µM) was 0.778, the viability ([13]; 15 µM) was 0.121 and the viability ([14]; 0.024 µM) was 0.975. For the same test system, the viability ([14]; 0.12 µM) was 0.929, the viability ([14]; 0.6 µM) was 0.891 and the viability ([14]; 3 µM) was 0.818. The viability ([14]; 15 µM) was 0.745.
Test System primary AML patient cells (S079) has a viability ([1]; 0.008 µM) of 0.935, a viability ([1]; 0.04 µM) of 1.01 and a viability ([1]; 0.2 µM) of 0.969. For the same test system, the viability ([1]; 1 µM) was 1.04, the viability ([1]; 5 µM) was 0.95 and the viability ([2]; 0.016 µM) was 1.05. For the same test system, the viability ([2]; 0.08 µM) was 1.08, the viability ([2]; 0.4 µM) was 1.03 and the viability ([2]; 2 µM) was 1.06. The viability ([2]; 10 µM) was 0.971, the viability ([3]; 0.024 µM) was 0.913 and the viability ([3]; 0.12 µM) was 0.846. It also gave a viability ([3]; 0.6 µM) of 0.775, a viability ([3]; 3 µM) of 0.681 and a viability ([3]; 15 µM) of 0.425. For the same test system, the viability ([4]; 0.016 µM) was 1.17, the viability ([4]; 0.08 µM) was 1.11 and the viability ([4]; 0.4 µM) was 1.13. For the same test system, the viability ([4]; 2 µM) was 1.11, the viability ([4]; 10 µM) was 1.18 and the viability ([5]; 0.0032 µM) was 0.897. The viability ([5]; 0.016 µM) was 1.01, the viability ([5]; 0.08 µM) was 0.876 and the viability ([5]; 0.4 µM) was 0.944. It also gave a viability ([5]; 2 µM) of 0.933, a viability ([6]; 0.016 µM) of 0.853 and a viability ([6]; 0.08 µM) of 0.847. It also gave a viability ([6]; 0.4 µM) of 0.641, a viability ([6]; 2 µM) of 0.577 and a viability ([6]; 10 µM) of 0.409. For the same test system, the viability ([7]; 0.0016 µM) was 0.891, the viability ([7]; 0.008 µM) was 0.863 and the viability ([7]; 0.04 µM) was 0.868. It also gave a viability ([7]; 0.2 µM) of 1.03, a viability ([7]; 1 µM) of 0.934 and a viability ([8]; 0.032 µM) of 0.892. For the same test system, the viability ([8]; 0.16 µM) was 0.755, the viability ([8]; 0.8 µM) was 0.646 and the viability ([8]; 4 µM) was 0.566. It also gave a viability ([8]; 20 µM) of 0.312, a viability ([9]; 0.024 µM) of 0.88 and a viability ([9]; 0.12 µM) of 0.959. The viability ([9]; 0.6 µM) was 0.794, the viability ([9]; 3 µM) was 0.779 and the viability ([9]; 15 µM) was 0.513. The viability ([10]; 0.024 µM) was 0.873, the viability ([10]; 0.12 µM) was 0.785 and the viability ([10]; 0.6 µM) was 0.875. The viability ([10]; 3 µM) was 0.802, the viability ([10]; 15 µM) was 0.853 and the viability ([11]; 0.00016 µM) was 0.865. The viability ([11]; 0.0008 µM) was 0.923, the viability ([11]; 0.004 µM) was 0.145 and the viability ([11]; 0.02 µM) was 0.0267. The viability ([11]; 0.1 µM) was 0.0257, the viability ([12]; 0.024 µM) was 1.02 and the viability ([12]; 0.12 µM) was 1. For the same test system, the viability ([12]; 0.6 µM) was 0.879, the viability ([12]; 3 µM) was 0.509 and the viability ([12]; 15 µM) was 0.0186. For the same test system, the viability ([13]; 0.024 µM) was 0.784, the viability ([13]; 0.12 µM) was 0.776 and the viability ([13]; 0.6 µM) was 0.633. The viability ([13]; 3 µM) was 0.434, the viability ([13]; 15 µM) was 0.205 and the viability ([14]; 0.024 µM) was 1.04. For the same test system, the viability ([14]; 0.12 µM) was 1.06, the viability ([14]; 0.6 µM) was 1.05 and the viability ([14]; 3 µM) was 0.963. The viability ([14]; 15 µM) was 0.919.
